Results on 2 compounds are retold here after US12404250B2, “PARP inhibitors for treating cancer and asthma” (Oregon Health & Science University, priority 2018, dated 2025).

Structures are written as SMILES.

One assay concerns the target T1, PARP15 cat (Homo sapiens, UniProt Q460N3).
T1 construct: cat-wwe; cat
T1 sequence (Q460N3 482-678 limits assumed): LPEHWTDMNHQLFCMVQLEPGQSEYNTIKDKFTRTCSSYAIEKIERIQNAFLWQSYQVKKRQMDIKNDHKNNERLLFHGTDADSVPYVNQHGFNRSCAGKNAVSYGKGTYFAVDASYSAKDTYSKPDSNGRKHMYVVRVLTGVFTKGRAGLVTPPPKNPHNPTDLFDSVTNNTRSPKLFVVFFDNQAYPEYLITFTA
The assay can be described thus: In vitro IC50, PARP15 cat. Format: biochemical. The conditions noted are these: SEM from a minimum of three dose-response experiments.

A further assay deals with T2, PARP4 Brct-cat (Homo sapiens, UniProt Q9UKK3).
T2 construct: PARP4 Brct-cat
T2 sequence (Q9UKK3 1-573 limits assumed): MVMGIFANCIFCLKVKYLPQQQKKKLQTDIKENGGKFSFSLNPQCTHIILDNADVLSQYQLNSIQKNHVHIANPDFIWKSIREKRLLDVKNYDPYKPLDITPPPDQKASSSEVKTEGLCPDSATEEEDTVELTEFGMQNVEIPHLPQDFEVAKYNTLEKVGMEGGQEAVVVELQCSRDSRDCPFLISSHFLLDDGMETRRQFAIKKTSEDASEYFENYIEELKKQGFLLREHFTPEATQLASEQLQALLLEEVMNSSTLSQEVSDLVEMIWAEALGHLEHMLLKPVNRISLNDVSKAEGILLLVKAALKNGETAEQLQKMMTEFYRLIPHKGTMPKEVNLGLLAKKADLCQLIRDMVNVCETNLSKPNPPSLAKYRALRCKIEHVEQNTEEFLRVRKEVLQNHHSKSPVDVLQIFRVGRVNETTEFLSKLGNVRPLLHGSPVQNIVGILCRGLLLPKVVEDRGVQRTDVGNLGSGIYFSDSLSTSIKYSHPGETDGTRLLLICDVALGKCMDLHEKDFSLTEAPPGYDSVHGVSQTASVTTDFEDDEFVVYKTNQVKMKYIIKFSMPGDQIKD
The assay can be described thus: In vitro IC50, PARP4 Brct-cat. It counts as biochemical. The conditions noted are these: SEM from a minimum of three dose-response experiments.

The target in a further assay is T3, PARP5 bcat (Homo sapiens, UniProt Q9H2K2).
T3 construct: bcat
In words: In vitro IC50, PARP5bcat. It counts as biochemical. The conditions noted are these: SEM from a minimum of three dose-response experiments.

A further assay has as its target T4, PARP14 cat-wwe (Homo sapiens, UniProt Q460N5).
T4 construct: PARP14 cat-wwe; no borders given for the assay protein
T4 sequence (Q460N5 1523-1801 limits assumed): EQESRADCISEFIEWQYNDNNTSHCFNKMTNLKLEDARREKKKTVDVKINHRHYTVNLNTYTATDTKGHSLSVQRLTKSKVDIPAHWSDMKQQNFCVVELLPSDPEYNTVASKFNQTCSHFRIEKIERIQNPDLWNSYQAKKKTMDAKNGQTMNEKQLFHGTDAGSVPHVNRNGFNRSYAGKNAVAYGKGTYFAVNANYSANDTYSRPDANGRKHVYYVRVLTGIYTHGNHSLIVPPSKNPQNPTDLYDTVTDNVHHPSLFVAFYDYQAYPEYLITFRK
In words: In vitro IC50, PARP14 cat-wwe. It counts as biochemical. Particulars: SEM from a minimum of three dose-response experiments.

A further assay deals with T5, PARP10 (Homo sapiens, UniProt Q53GL7).
T5 sequence (Q53GL7 1-1025): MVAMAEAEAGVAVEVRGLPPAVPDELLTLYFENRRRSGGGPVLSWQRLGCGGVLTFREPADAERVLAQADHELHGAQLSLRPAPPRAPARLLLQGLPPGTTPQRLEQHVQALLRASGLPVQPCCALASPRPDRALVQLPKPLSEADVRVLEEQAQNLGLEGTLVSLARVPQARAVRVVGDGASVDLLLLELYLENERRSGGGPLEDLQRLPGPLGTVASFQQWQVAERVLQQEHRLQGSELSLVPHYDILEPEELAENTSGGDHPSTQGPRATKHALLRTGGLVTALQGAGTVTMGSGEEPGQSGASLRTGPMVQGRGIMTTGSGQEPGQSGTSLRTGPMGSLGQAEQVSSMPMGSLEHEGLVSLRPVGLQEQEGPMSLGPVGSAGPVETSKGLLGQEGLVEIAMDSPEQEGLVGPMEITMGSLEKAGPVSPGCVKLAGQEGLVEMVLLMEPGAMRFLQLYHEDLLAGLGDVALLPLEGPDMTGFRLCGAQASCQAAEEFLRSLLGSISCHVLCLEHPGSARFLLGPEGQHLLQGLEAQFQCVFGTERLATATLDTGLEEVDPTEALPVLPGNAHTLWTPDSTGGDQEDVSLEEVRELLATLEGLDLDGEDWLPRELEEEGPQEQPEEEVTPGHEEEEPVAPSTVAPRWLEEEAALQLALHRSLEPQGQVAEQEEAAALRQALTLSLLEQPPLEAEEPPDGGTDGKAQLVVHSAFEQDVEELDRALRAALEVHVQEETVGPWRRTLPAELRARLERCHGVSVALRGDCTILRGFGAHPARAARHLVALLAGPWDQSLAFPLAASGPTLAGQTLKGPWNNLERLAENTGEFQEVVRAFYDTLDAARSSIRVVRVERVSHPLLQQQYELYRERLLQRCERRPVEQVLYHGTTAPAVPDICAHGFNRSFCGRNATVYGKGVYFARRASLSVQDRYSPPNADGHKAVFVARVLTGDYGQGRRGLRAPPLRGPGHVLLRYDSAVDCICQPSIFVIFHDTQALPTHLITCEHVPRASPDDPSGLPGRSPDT
In words: GFP-PARP10 auto-MARylation in HEK 293T cells (Western blot). The conditions noted are these: for Inhibition of PARP10 auto-MARylation in cells at 3 μM: HEK 293T cells transfected with GFP-PARP10, 3 μM for 3 h. For orientation: Immunoblotting shows a protein as a band on a membrane.

T3 sequence (Q9H2K2 959-1164): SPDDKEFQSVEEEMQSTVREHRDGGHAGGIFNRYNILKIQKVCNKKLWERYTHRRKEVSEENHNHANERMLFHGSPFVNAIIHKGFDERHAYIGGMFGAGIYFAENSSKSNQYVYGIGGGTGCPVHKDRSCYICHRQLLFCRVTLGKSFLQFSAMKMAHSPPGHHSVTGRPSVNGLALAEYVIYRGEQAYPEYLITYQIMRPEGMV

`CC#Cc1ccc2c(=O)[nH]c(CSc3ccc(C(=O)O)cc3)nc2c1C` [ITK6, 4-(((8-methyl-4-oxo-7-(prop-1-yn-1-yl)-3,4-dihydroquinazolin-2-yl)methyl)thio) benzoic acid]: the IC50 at PARP15 cat was 496 ± 190 nM; on PARP4 Brct-cat, greater than 30000 nM; against PARP5 bcat it was greater than 30000 nM; against PARP14 cat-wwe, 917 ± 86 nM. For the same compound, at PARP10, the “Inhibition of PARP10 auto-MARylation in cells at 3 μM” value is reported as “inhibits PARP10 auto-MARylation in cells”. The “Inhibition of PARP10 auto-MARylation in cells, dose response” value on PARP10 (HEK 293T cells transfected with GFP-PARP10, increasing concentrations for 90 min) was “inhibits PARP10 auto-MARylation in cells in a dose dependent manner”.
Regarding `CC#Cc1ccc2c(=O)[nH]c(CSc3ncccn3)nc2c1C` [ITK7, 8-methyl-7-(prop-1-yn-1-yl)-2-((pyrimidin-2-ylthio)methyl)quinazolin-4(3H)-one], the IC50 against PARP15 cat was greater than 30000 nM; at PARP4 Brct-cat it was greater than 30000 nM; against PARP5 bcat, greater than 30000 nM; on PARP14 cat-wwe, 2860 ± 350 nM. Further, the “Inhibition of PARP10 auto-MARylation in cells at 3 μM” value at PARP10 is “does not inhibit PARP10”.

The term IC50 denotes the midpoint of a concentration-inhibition curve. Low values mean inhibition by little substance, high ones a need for much substance.
